Experiment [1] has as its target T1, TBK1 (Homo sapiens, UniProt Q9UHD2).
T1 sequence (Q9UHD2 1-729): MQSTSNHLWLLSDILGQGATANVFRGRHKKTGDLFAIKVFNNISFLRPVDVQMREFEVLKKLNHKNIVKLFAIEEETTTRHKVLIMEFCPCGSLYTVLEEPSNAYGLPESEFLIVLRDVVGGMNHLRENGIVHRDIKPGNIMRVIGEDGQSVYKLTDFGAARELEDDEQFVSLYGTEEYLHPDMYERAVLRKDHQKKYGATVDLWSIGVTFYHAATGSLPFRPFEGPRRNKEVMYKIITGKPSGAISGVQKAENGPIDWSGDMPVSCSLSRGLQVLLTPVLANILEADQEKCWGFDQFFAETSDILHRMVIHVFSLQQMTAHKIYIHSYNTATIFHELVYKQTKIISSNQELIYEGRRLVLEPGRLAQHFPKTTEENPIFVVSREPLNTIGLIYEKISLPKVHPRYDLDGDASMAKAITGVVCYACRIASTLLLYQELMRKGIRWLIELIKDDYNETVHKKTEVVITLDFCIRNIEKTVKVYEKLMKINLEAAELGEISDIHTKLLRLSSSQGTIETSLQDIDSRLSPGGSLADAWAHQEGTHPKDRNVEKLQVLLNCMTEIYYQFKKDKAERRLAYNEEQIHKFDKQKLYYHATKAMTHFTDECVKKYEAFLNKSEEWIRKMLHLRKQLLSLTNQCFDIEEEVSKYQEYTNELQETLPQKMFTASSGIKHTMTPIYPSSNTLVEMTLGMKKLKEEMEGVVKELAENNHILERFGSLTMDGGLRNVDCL
Nature of the experiment: TBK Biochemical Assay. Conditions: read-out: TBK1 IC50. In a few lines:
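Caliper LabChip mobility-shift readout of substrate and product after 90 min of TBK1 reaction at 25° C and stop-buffer addition. Compounds tested in 1:4 serial dilution over 10 points from 30 uM final at 1% DMSO; staurosporine 10 uM final defines full inhibition.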

The target in experiment [2] is T2, IKKε (Homo sapiens, UniProt Q14164).
T2 sequence (Q14164 1-716): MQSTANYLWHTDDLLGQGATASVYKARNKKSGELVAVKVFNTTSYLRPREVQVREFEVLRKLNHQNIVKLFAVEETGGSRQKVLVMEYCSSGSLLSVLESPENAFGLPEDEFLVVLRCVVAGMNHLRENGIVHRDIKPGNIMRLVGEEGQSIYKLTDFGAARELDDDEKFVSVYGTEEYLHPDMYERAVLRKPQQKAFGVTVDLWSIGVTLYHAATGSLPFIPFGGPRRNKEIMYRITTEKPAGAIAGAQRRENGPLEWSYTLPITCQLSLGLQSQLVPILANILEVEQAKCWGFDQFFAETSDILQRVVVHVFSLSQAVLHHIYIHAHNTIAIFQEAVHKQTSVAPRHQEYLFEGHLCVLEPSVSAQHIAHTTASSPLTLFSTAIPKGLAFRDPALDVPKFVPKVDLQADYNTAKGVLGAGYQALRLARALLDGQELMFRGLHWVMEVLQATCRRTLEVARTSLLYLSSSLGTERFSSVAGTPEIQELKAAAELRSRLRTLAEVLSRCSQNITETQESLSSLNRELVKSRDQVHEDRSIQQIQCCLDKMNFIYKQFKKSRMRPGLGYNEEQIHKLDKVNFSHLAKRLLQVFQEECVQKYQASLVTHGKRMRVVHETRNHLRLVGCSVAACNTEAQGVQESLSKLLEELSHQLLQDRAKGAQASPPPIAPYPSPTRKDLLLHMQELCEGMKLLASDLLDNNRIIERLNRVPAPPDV
In words: IKKe Biochemical Assay. Conditions: read-out: IKKε IC50. In a few lines:
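Activity was measured as mobility-shift separation of phosphorylated from unphosphorylated substrate on a LabChip EZ Reader. Compound was titrated from 30 uM final in 10 points, 1:4 steps, with 1% DMSO, and enzyme plus substrate reacted 90 min at 25° C before stop buffer. Control wells held 10 uM staurosporine.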

Experiment [3] deals with phosphorylation of the IRF-3 protein in MDA-MB-468 cells. In words: pIRF3 immunocytochemistry cell based assay. To be noted: Homo sapiens; MDA-MB-468 cells, Poly(I:C) stimulation; read-out: pIRF3 IC50. In short, it runs like this: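 After 2 h stimulation with Poly(I:C) (10 ug/ml), following 1 h compound pre-treatment (10-point, 3-fold dilution, top 10 uM), MDA-MB-468 cells were fixed and stained with anti-pIRF3 antibody. pIRF3 fluorescence was normalized to PI staining or cell count on an Acumen cytometer. IC50 curves were derived from this.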

Turning to `CCC(CO)(CO)NC(=O)c1ccc(-c2cc3nccc(-c4ccc(OC5CCOCC5)c(C#N)c4)c3o2)c(OC)c1` [Compound 479, N-(1,1-Bis-hydroxymethyl-propyl)-4-{7-[3-cyano-4-(tetrahydro-pyran-4-yloxy)-phenyl]-furo[3,2-b]pyridin-2-yl}-3-methoxy-benzamide], the IC50 (in general, the point on the concentration scale where inhibition reaches its midpoint) is less than 100 nM in experiment [1], less than 100 nM in experiment [2] and 100 to 1000 nM in experiment [3].
As for `COc1cc(C(=O)N(C)C(C)(C)CO)ccc1-c1cc2nccc(-c3ccc(OC4CCOCC4)c(C#N)c3)c2o1` [Compound 480, 4-{7-[3-Cyano-4-(tetrahydro-pyran-4-yloxy)-phenyl]-furo[3,2-b]pyridin-2-yl}-N-(2-hydroxy-1,1-dimethyl-ethyl)-3-methoxy-N-methyl-benzamide], the IC50 in experiment [1] is less than 100 nM; in experiment [2], less than 100 nM; in experiment [3] it was 100 to 1000 nM.
`COc1cc(C(=O)N(C)C(C)(C)C)ccc1-c1cc2nccc(-c3ccc(OC4CCOCC4)c(C#N)c3)c2o1` [Compound 481, N-tert-Butyl-4-{7-[3-cyano-4-(tetrahydro-pyran-4-yloxy)-phenyl]-furo[3,2-b]pyridin-2-yl}-3-methoxy-N-methyl-benzamide]: the half-inhibitory concentration (IC50) in experiment [1] is less than 100 nM; in experiment [2], less than 100 nM; in experiment [3], 100 to 1000 nM.
Take `COc1cc(C(=O)N2CCCCN2)ccc1-c1cc2nccc(-c3ccc(OC4CCOCC4)c(C#N)c3)c2o1` [Compound 482, 5-{2-[2-Methoxy-4-(tetrahydro-pyridazine-1-carbonyl)-phenyl]-furo[3,2-b]pyridin-7-yl}-2-(tetrahydro-pyran-4-yloxy)-benzonitrile]: the IC50 in experiment [1] is less than 100 nM; in experiment [2] it was less than 100 nM; in experiment [3], 100 to 1000 nM.
With `COc1cc(C(=O)N(C)CCS(C)(=O)=O)ccc1-c1cc2nccc(-c3ccc(OC4CCOCC4)c(C#N)c3)c2o1` [Compound 483, 4-{7-[3-Cyano-4-(tetrahydro-pyran-4-yloxy)-phenyl]-furo[3,2-b]pyridin-2-yl}-N-(2-methanesulfonyl-ethyl)-3-methoxy-N-methyl-benzamide], the IC50 in experiment [1], in experiment [2] and in experiment [3] was less than 100 nM each time.
On to `COc1cc(C(=O)N(C)C)ccc1-c1cc2nccc(-c3ccc(OC4CN(C)C4)c(C#N)c3)c2o1` [Compound 484, 4-{7-[3-Cyano-4-(1-methyl-azetidin-3-yloxy)-phenyl]-furo[3,2-b]pyridin-2-yl}-3-methoxy-N,N-dimethyl-benzamide], for which the IC50 in experiment [1], in experiment [2] and in experiment [3] was less than 100 nM each time.
As for `COc1cc(C(=O)N(C)C)ccc1-c1cc2nccc(-c3ccc(OC4CN(C(C)C)C4)c(C#N)c3)c2o1` [Compound 485, 4-{7-[3-Cyano-4-(1-isopropyl-azetidin-3-yloxy)-phenyl]-furo[3,2-b]pyridin-2-yl}-3-methoxy-N,N-dimethyl-benzamide], the concentration for half-maximal inhibition (IC50) in experiment [1], in experiment [2] and in experiment [3] was 1000 to 5000 nM in each case.
For the compound `COc1cc(C(=O)N(C)C)cnc1-c1cc2nccc(-c3ccc(OC4CCOCC4F)c(C#N)c3)c2o1` (stereo not drawn) [Compound 486, 6-{7-[3-Cyano-4-(3-fluoro-tetrahydro-pyran-4-yloxy)-phenyl]-furo[3,2-b]pyridin-2-yl}-5-methoxy-N,N-dimethyl-nicotinamide], the IC50 in experiment [1], in experiment [2] and in experiment [3] was less than 100 nM in each case.
Consider `COc1cc(C(=O)N(C)C)cnc1-c1cc2nccc(-c3ccc(OC4CCNC4)c(C#N)c3)c2o1` (stereo not drawn) [Compound 487, 6-{7-[3-Cyano-4-(pyrrolidin-3-yloxy)-phenyl]-furo[3,2-b]pyridin-2-yl}-5-methoxy-N,N-dimethyl-nicotinamide], for which the IC50 in experiment [1], in experiment [2] and in experiment [3] was 100 to 1000 nM each time.
Turning to `COc1cc(C(=O)N(C)C)cnc1-c1cc2nccc(-c3ccc(N4CCC(F)C4)c(C#N)n3)c2o1` (stereo not drawn) [Compound 488, 2-{7-[6-Cyano-6-5-(3-fluoro-pyrrolidin-1-yl)-pyridin-3-yl]-furo[3,2-b]pyridin-2-yl}-5-methoxy-N,N-dimethyl-nicotinamide], the IC50 in experiment [1] was less than 100 nM; in experiment [2], less than 100 nM; in experiment [3], 100 to 1000 nM.
Regarding `COc1cc(C(=O)N(C)C)cnc1-c1cc2nccc(-c3cnc(N4CCC(F)C4)c(C#N)c3)c2o1` (stereo not drawn) [Compound 489], the 50% inhibitory concentration (IC50) in experiment [1] was less than 100 nM; in experiment [2], less than 100 nM; in experiment [3], 100 to 1000 nM.
For `COc1cc(C(=O)N2CCC(O)C2)ccc1-c1cc2nccc(-c3ccc(OC4CCOCC4)c(C#N)c3)c2o1` (stereo not drawn) [Compound 492, 5-{2-[4-(3-Hydroxy-pyrrolidine-1-carbonyl)-2-methoxy-phenyl]-furo[3,2-b]pyridin-7-yl}-2-(tetrahydro-pyran-4-yloxy)-benzonitrile], the IC50 in experiment [1] was less than 100 nM; in experiment [2] it was less than 100 nM; in experiment [3] it was 100 to 1000 nM.
Turning to `COc1cc(C(=O)N[C@H]2CCN(C)C2)ccc1-c1cc2nccc(-c3ccc(OC4CCOCC4)c(C#N)c3)c2o1` [Compound 493, 5-{2-[4-(N—((S)-methyl-pyrrolidin-3-yl)-1-carbonyl)-2-methoxy-phenyl]-furo[3,2-b]pyridin-7-yl}-2-(tetrahydro-pyran-4-yloxy)-benzonitrile], the IC50 in experiment [1] was less than 100 nM; in experiment [2] it was less than 100 nM; in experiment [3], 100 to 1000 nM.
As to `COc1cc(C(=O)N[C@@H]2CCN(C)C2)ccc1-c1cc2nccc(-c3ccc(OC4CCOCC4)c(C#N)c3)c2o1` [Compound 494, 5-{2-[4-(N—((R)-methyl-pyrrolidin-3-yl)-1-carbonyl)-2-methoxy-phenyl]-furo[3,2-b]pyridin-7-yl}-2-(tetrahydro-pyran-4-yloxy)-benzonitrile], the figures for the IC50 in experiment [1], in experiment [2] and in experiment [3] were less than 100 nM, less than 100 nM and 100 to 1000 nM, respectively.
Turning to `COc1cc(C(=O)N2CC(O)C2)ccc1-c1cc2nccc(-c3ccc(N4CC[C@@H](F)C4)c(C#N)c3)c2o1` [Compound 497, 2-((R)-3-Fluoro-pyrrolidin-1-yl)-5-{2-[4-(3-hydroxy-azetidine-1-carbonyl)-2-methoxy-phenyl]-furo[3,2-b]pyridin-7-yl}-benzonitrile], the IC50 was less than 100 nM in experiment [1], less than 100 nM in experiment [2] and 100 to 1000 nM in experiment [3].
In the case of `COc1cc(C(=O)NC2C3COCC32)ccc1-c1cc2nccc(-c3ccc(N4CC[C@@H](F)C4)c(C#N)c3)c2o1` (stereo partly drawn) [Compound 498], the 50% inhibitory concentration (IC50) in experiment [1] was 100 to 1000 nM; in experiment [2] it was less than 100 nM; in experiment [3], 100 to 1000 nM.
Take `COc1cc(C(=O)NCC(C)(C)N(C)C)ccc1-c1cc2nccc(-c3ccc(NC4CCOCC4)c(C#N)c3)c2o1` [Compound 499, 4-{7-[3-Cyano-4-(tetrahydro-pyran-4-ylamino)-phenyl]-furo[3,2-b]pyridin-2-yl}-N-(2-dimethylamino-2-methyl-propyl)-3-methoxy-benzamide]: the IC50 in experiment [1] is less than 100 nM; in experiment [2], less than 100 nM; in experiment [3] it was 100 to 1000 nM.

The values above are taken from patent US10428080B2, “TBK/IKK inhibitor compounds and uses thereof” (Merck Patent GmbH, priority 2015, dated 2019).
